Results reported in patent publication US10941138B2, “Quinoline and isoquinoline derivatives for treating pain and pain related conditions” (ESTEVE PHARMACEUTICALS, S.A., priority 2016, dated 2021).
Like-named read-outs stand apart in the source and are kept apart here.

Key:
[1] = target: human α2δ-1 subunit of Cav2.2 calcium channel (Homo sapiens (Human), UniProt P54289); assay: Binding assay to human α2δ-1 subunit of Cav2.2 calcium channel ([3H]-Gabapentin); conditions: read-out: Ki (nM) alpha2delta Hum
Experimental: Binding Assay to Human α2δ-1 Subunit of Cav2.2 Calcium Channel.
Human α2δ-1 enriched membranes (2.5 μg) were incubated with 15 nM of radiolabeled [3H]-Gabapentin in assay buffer containing Hepes-KOH 10 mM, pH 7.4.
NSB (non specific binding) was measured by adding 10 μM pregabalin. The binding of the test compound was measured at five different concentrations. After 60 min incubation at 27° C., binding reaction was terminated by filtering through Multiscreen GF/C (Millipore) presoaked in 0.5% polyethyleneimine in Vacuum Manifold Station, followed by 3 washes with ice-cold filtration buffer containing 50 mM Tris-HCl, pH 7.4. Filter plates were dried at 60° C. for 1 h and 30 μl of scintillation cocktail were added to each well before radioactivity reading.
(§1) Readings were performed in a Trilux 1450 Microbeta radioactive counter (Perkin Elmer).

[2] = target: human norepinephrine transporter (NET) (Homo sapiens (Human), UniProt P23975); assay: Binding assay to human norepinephrine transporter (NET) ([3H]-Nisoxetin); conditions: Table 2, dual compounds, human NET enriched membranes, read-out: Ki (nM) NET Hum
Experimental: Binding Assay to Human Norepinephrine Transporter (NET).
Human norepinephrine transporter (NET) enriched membranes (5 μg) were incubated with 5 nM of radiolabeled [3H]-Nisoxetin in assay buffer containing 50 mM Tris-HCl, 120 mM NaCl, 5 mM KCl, pH 7.4.
NSB (non specific binding) was measured by adding desipramine 10 μM. The binding of the test compound was measured at five different concentrations. After 60 min incubation at 4° C., binding reaction was terminated by filtering through Multiscreen GF/C (Millipore) presoaked in 0.5% polyethyleneimine in Vacuum Manifold Station, followed by 3 washes with ice-cold filtration buffer containing 50 mM Tris-HCl, 0.9% NaCl, pH 7.4.
Filter plates were dried at 60° C. for 1 h and 30 μl of scintillation cocktail were added to each well before radioactivity reading.
as §1

[3] = Table 1, human α2δ-1 enriched membranes
[4] = Table 2, dual compounds, human α2δ-1 enriched membranes

human norepinephrine transporter (NET), sequence (P23975 whole entry): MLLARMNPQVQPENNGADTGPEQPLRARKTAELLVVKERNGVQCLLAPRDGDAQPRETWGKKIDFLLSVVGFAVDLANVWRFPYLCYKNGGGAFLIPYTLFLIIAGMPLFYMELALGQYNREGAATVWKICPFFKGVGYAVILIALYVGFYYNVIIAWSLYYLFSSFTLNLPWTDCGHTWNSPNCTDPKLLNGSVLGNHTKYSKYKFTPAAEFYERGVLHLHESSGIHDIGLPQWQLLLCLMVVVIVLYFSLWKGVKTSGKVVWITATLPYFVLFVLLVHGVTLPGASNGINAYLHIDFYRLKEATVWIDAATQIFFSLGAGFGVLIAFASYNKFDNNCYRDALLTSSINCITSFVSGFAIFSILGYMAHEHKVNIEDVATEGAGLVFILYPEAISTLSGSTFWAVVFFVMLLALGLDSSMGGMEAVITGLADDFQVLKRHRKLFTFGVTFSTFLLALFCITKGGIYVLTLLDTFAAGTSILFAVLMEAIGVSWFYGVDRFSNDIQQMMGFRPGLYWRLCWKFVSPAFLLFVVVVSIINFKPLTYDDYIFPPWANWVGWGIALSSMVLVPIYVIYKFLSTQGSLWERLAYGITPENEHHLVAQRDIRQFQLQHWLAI
human α2δ-1 subunit of Cav2.2 calcium channel, sequence (P54289 25-1103): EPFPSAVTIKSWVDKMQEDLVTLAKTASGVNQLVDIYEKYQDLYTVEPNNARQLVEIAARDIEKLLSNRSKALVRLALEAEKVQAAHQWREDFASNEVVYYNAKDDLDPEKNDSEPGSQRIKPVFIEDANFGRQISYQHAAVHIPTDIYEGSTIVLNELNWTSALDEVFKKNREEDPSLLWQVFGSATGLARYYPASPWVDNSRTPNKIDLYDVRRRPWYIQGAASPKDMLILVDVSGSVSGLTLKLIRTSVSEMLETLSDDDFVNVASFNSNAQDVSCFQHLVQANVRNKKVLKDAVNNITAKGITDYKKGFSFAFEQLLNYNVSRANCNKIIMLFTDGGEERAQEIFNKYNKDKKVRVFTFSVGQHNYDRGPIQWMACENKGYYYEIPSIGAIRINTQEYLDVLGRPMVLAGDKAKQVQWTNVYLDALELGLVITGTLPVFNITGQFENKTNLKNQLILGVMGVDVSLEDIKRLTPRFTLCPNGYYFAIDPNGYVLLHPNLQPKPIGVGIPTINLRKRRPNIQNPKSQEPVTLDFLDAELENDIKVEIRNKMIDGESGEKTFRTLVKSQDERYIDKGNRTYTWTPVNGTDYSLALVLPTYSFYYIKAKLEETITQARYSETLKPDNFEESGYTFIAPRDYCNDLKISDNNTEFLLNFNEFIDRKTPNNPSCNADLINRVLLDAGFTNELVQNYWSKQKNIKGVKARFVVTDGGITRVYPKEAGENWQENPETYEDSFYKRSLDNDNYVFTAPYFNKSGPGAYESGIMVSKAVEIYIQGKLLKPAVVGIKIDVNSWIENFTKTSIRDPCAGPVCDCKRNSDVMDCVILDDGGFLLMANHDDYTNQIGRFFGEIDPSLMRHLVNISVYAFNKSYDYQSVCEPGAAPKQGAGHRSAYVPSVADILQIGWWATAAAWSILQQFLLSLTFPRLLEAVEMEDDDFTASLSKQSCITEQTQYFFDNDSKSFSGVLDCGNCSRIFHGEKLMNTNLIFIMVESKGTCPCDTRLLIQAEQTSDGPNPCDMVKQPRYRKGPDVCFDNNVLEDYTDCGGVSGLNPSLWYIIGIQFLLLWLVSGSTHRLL

Compound: CNCC[C@@H](Oc1cccc2cnccc12)c1ccc(F)s1 [Example 52, (R)-3-(5-fluorothiophen-2-yl)-3-(isoquinolin-5-yloxy)-N-methylpropan-1-amine]
- Ki [1, 3]: < 100 nM
- Ki [1, 4]: < 100 nM
- Ki [2]: 100 to 500 nM

Compound: CNCC[C@@H](Oc1cccc2ccnc(C)c12)c1cccs1 [Example 62, (R)-N-methyl-3-((1-methylisoquinolin-8-yl)oxy)-3-(thiophen-2-yl)propan-1-amine]
- Ki [1, 3]: < 100 nM
- Ki [1, 4]: < 100 nM
- Ki [2]: 500 to 1000 nM

Compound: CNCCC(Oc1cccc2ncccc12)c1sccc1F (stereo not drawn) [Example 48, 3-(3-fluorothiophen-2-yl)-N-methyl-3-(quinolin-5-yloxy)propan-1-amine]
- Ki [1, 3]: 100 to 500 nM
- Ki [1, 4]: 100 to 500 nM
- Ki [2]: 100 to 500 nM

Compound: CNCC[C@H](Oc1cccc2c(C)nccc12)c1cccs1 [Example 65, (S)-N-methyl-3-((1-methylisoquinolin-5-yl)oxy)-3-(thiophen-2-yl)propan-1-amine]
- Ki [1, 3]: ≥ 3000 nM
- Ki [1, 4]: ≥ 3000 nM
- Ki [2]: 100 to 500 nM

Compound: CNCCC(Oc1cccc2cnccc12)C1CCOCC1 (stereo not drawn) [Example 18, 3-(isoquinolin-5-yloxy)-N-methyl-3-(tetrahydro-2H-pyran-4-yl)propan-1-amine]
- Ki [1, 3]: ≥ 3000 nM
- Ki [1, 4]: ≥ 3000 nM
- Ki [2]: 100 to 500 nM

Compound: CNCCC(Oc1cccc2ncccc12)c1ccc(Cl)s1 (stereo not drawn) [Example 41, 3-(5-chlorothiophen-2-yl)-N-methyl-3-(quinolin-5-yloxy)propan-1-amine]
- Ki [1, 3]: 100 to 500 nM
- Ki [1, 4]: 100 to 500 nM
- Ki [2]: 100 to 500 nM

Compound: CNCCC(Oc1cccc2ccncc12)c1ccsc1 (stereo not drawn) [Example 58, 3-(isoquinolin-8-yloxy)-N-methyl-3-(thiophen-3-yl)propan-1-amine]
- Ki [1, 3]: 100 to 500 nM
- Ki [1, 4]: 100 to 500 nM
- Ki [2]: 500 to 1000 nM

Compound: NCCC(Oc1cccc2cnccc12)c1cccs1 (stereo not drawn) [Example 44, 3-(isoquinolin-5-yloxy)-3-(thiophen-2-yl)propan-1-amine]
- Ki [1, 3]: ≥ 3000 nM
- Ki [1, 4]: ≥ 3000 nM
- Ki [2]: 100 to 500 nM

Compound: CNCC[C@H](Oc1cccc2cnccc12)c1ccsc1 [Example 68, (S)-3-(isoquinolin-5-yloxy)-N-methyl-3-(thiophen-3-yl)propan-1-amine]
- Ki [1, 3]: ≥ 3000 nM
- Ki [1, 4]: ≥ 3000 nM
- Ki [2]: < 100 nM

Compound: CNCC[C@@H](Oc1cccc2ncccc12)c1sccc1F [Example 85, (R)-3-(3-fluorothiophen-2-yl)-N-methyl-3-(quinolin-5-yloxy)propan-1-amine]
- Ki [1, 3]: 500 to 3000 nM
- Ki [1, 4]: 500 to 3000 nM
- Ki [2]: 100 to 500 nM

Compound: CNCC[C@H](Oc1cccc2ncccc12)c1sccc1F [Example 84, (S)-3-(3-Fluorothiophen-2-yl)-N-methyl-3-(quinolin-5-yloxy)propan-1-amine]
- Ki [1, 3]: 500 to 3000 nM
- Ki [1, 4]: 500 to 3000 nM
- Ki [2]: 100 to 500 nM

Compound: CNCC[C@H](Oc1cccc2ccncc12)c1sccc1F [Example 86, (S)-3-(3-Fluorothiophen-2-yl)-3-(isoquinolin-8-yloxy)-N-methylpropan-1-amine]
- Ki [1, 3]: ≥ 3000 nM
- Ki [1, 4]: ≥ 3000 nM
- Ki [2]: 100 to 500 nM

Compound: CNCC[C@H](Oc1cccc2ncccc12)c1ccc(Cl)s1 [Example 78, (S)-3-(5-Chlorothiophen-2-yl)-N-methyl-3-(quinolin-5-yloxy)propan-1-amine]
- Ki [1, 3]: 500 to 3000 nM
- Ki [1, 4]: 500 to 3000 nM
- Ki [2]: 100 to 500 nM

Compound: CNCCC(Oc1cccc2cnccc12)c1ccncc1 (stereo not drawn) [Example 25, 3-(isoquinolin-5-yloxy)-N-methyl-3-(pyridin-4-yl)propan-1-amine]
- Ki [1, 3]: ≥ 3000 nM
- Ki [1, 4]: ≥ 3000 nM
- Ki [2]: 100 to 500 nM

Compound: CNCC[C@@H](Oc1cccc2cnccc12)c1sccc1F [Example 83, (R)-3-(3-fluorothiophen-2-yl)-3-(isoquinolin-5-yloxy)-N-methylpropan-1-amine]
- Ki [1, 3]: 100 to 500 nM
- Ki [1, 4]: 100 to 500 nM
- Ki [2]: 100 to 500 nM

Compound: CNCC[C@H](Oc1cccc2ccncc12)c1cccs1 [Example 10, (S)-3-(isoquinolin-8-yloxy)-N-methyl-3-(thiophen-2-yl)propan-1-amine]
- Ki [1, 3]: ≥ 3000 nM
- Ki [1, 4]: ≥ 3000 nM
- Ki [2]: 500 to 1000 nM

Compound: CNCCC(Oc1cccc2ncccc12)c1cccs1 (stereo not drawn) [Example 2, N-methyl-3-(quinolin-5-yloxy)-3-(thiophen-2-yl)propan-1-amine]
- Ki [1, 3]: 100 to 500 nM
- Ki [1, 4]: 100 to 500 nM
- Ki [2]: 100 to 500 nM

Compound: CNCC[C@@H](Oc1cnc2ccccc2c1)c1cccs1 [Example 94, (R)-N-methyl-3-(quinolin-3-yloxy)-3-(thiophen-2-yl)propan-1-amine]
- Ki [1, 3]: ≥ 3000 nM
- Ki [1, 4]: ≥ 3000 nM
- Ki [2]: 100 to 500 nM

Compound: CNCC[C@@H](Oc1cccc2ncccc12)c1ccc(Cl)s1 [Example 79, (R)-3-(5-chlorothiophen-2-yl)-N-methyl-3-(quinolin-5-yloxy)propan-1-amine]
- Ki [1, 3]: < 100 nM
- Ki [1, 4]: < 100 nM
- Ki [2]: 500 to 1000 nM

Compound: CNCC[C@H](Oc1cccc2cnccc12)c1cccs1 [Example 11, (S)-3-(isoquinolin-5-yloxy)-N-methyl-3-(thiophen-2-yl)propan-1-amine]
- Ki [1, 3]: ≥ 3000 nM
- Ki [1, 4]: ≥ 3000 nM
- Ki [2]: < 100 nM

Compound: CNCC[C@@H](Oc1cccc2ccncc12)c1ccc(F)s1 [Example 81, (R)-3-(5-fluorothiophen-2-yl)-3-(isoquinolin-8-yloxy)-N-methylpropan-1-amine]
- Ki [1, 3]: 100 to 500 nM
- Ki [1, 4]: 100 to 500 nM
- Ki [2]: 100 to 500 nM

Compound: CNCCC(Oc1cccc2ncccc12)c1nccs1 (stereo not drawn) [Example 72, N-methyl-3-(quinolin-5-yloxy)-3-(thiazol-2-yl)propan-1-amine]
- Ki [1, 3]: 100 to 500 nM
- Ki [1, 4]: 100 to 500 nM
- Ki [2]: 500 to 1000 nM

Compound: CNCCC(Oc1cccc2ncccc12)c1ccc(F)s1 (stereo not drawn) [Example 42, 3-(5-fluorothiophen-2-yl)-N-methyl-3-(quinolin-5-yloxy)propan-1-amine]
- Ki [1, 3]: < 100 nM
- Ki [1, 4]: < 100 nM
- Ki [2]: 100 to 500 nM

Compound: CNCC[C@@H](Oc1cccc2ccncc12)c1sccc1F [Example 87, (R)-3-(3-fluorothiophen-2-yl)-3-(isoquinolin-8-yloxy)-N-methylpropan-1-amine]
- Ki [1, 3]: 100 to 500 nM
- Ki [1, 4]: 100 to 500 nM
- Ki [2]: 100 to 500 nM

Compound: CNCC[C@@H](Oc1cccc2cnccc12)c1cccs1 [Example 14, (R)-3-(isoquinolin-5-yloxy)-N-methyl-3-(thiophen-2-yl)propan-1-amine]
- Ki [1, 3]: 100 to 500 nM
- Ki [1, 4]: 100 to 500 nM
- Ki [2]: 100 to 500 nM

Compound: CNCC[C@H](Oc1cccc2ccncc12)c1cccs1 (stereo in doubt) [Example 12, 3-(isoquinolin-8-yloxy)-N-methyl-3-(thiophen-2-yl)propan-1-amine]
- Ki [1, 3]: 100 to 500 nM
- Ki [1, 4]: 100 to 500 nM
- Ki [2]: 100 to 500 nM

Compound: CNCC[C@H](Oc1cccc2ncccc12)c1cccs1 [Example 9, (S)-N-methyl-3-(quinolin-5-yloxy)-3-(thiophen-2-yl)propan-1-amine]
- Ki [1, 3]: < 100 nM
- Ki [1, 4]: < 100 nM
- Ki [2]: 500 to 1000 nM

Compound: CNCCC(Oc1cccc2cnccc12)c1cccnc1 (stereo not drawn) [Example 17, 3-(isoquinolin-5-yloxy)-N-methyl-3-(pyridin-3-yl)propan-1-amine]
- Ki [1, 3]: ≥ 3000 nM
- Ki [1, 4]: ≥ 3000 nM
- Ki [2]: 100 to 500 nM

Compound: CNCCC(Oc1cccc2ccncc12)c1cc(C(F)(F)F)ccn1 (stereo not drawn) [Example 30, 3-(isoquinolin-8-yloxy)-N-methyl-3-(4-(trifluoromethyl)pyridin-2-yl)propan-1-amine]
- Ki [1, 3]: ≥ 3000 nM
- Ki [1, 4]: ≥ 3000 nM
- Ki [2]: 500 to 1000 nM

Compound: CNCCC(Oc1cccc2cccnc12)c1cccs1 (stereo not drawn) [Example 1, N-Methyl-3-(quinolin-8-yloxy)-3-(thiophen-2-yl)propan-1-amine]
- Ki [1, 3]: ≥ 3000 nM
- Ki [1, 4]: ≥ 3000 nM
- Ki [2]: < 100 nM

Compound: CNCCC(Oc1cccc2cnccc12)c1ccsc1 (stereo not drawn) [Example 56, 3-(isoquinolin-5-yloxy)-N-methyl-3-(thiophen-3-yl)propan-1-amine]
- Ki [1, 3]: 100 to 500 nM
- Ki [1, 4]: 100 to 500 nM
- Ki [2]: < 100 nM

Compound: CNCC[C@H](Oc1cccc2cnccc12)c1ccc(F)s1 [Example 50, (S)-3-(5-fluorothiophen-2-yl)-3-(isoquinolin-5-yloxy)-N-methylpropan-1-amine]
- Ki [1, 3]: 500 to 3000 nM
- Ki [1, 4]: 500 to 3000 nM
- Ki [2]: < 100 nM

Compound: CNCC[C@@H](Oc1cccc2ccncc12)c1cccs1 [Example 13, (R)-3-(isoquinolin-8-yloxy)-N-methyl-3-(thiophen-2-yl)propan-1-amine]
- Ki [1, 3]: 100 to 500 nM
- Ki [1, 4]: 100 to 500 nM
- Ki [2]: 100 to 500 nM

Compound: CNCCC(Oc1ccc2ccncc2c1)c1cccs1 (stereo not drawn) [Example 74, 3-(isoquinolin-7-yloxy)-N-methyl-3-(thiophen-2-yl)propan-1-amine]
- Ki [1, 3]: ≥ 3000 nM
- Ki [1, 4]: ≥ 3000 nM
- Ki [2]: 100 to 500 nM

Compound: CNCC[C@H](Oc1cccc2cnccc12)c1sccc1F [Example 82, (S)-3-(3-Fluorothiophen-2-yl)-3-(isoquinolin-5-yloxy)-N-methylpropan-1-amine]
- Ki [1, 3]: ≥ 3000 nM
- Ki [1, 4]: ≥ 3000 nM
- Ki [2]: < 100 nM
